The results in this text go back to patent publication US11059795B2, “Androgen receptor modulators and methods for their use” (ESSA Pharma, Inc., priority 2018, dated 2021).

A value given as a limit tells only on which side of the number the result lay.

Series [1] concerns the target T1, LBD of androgen receptor (AR) fused to DBD of GAL4 (Homo sapiens, UniProt P10275).
T1 sequence (P10275 669-900 limits assumed): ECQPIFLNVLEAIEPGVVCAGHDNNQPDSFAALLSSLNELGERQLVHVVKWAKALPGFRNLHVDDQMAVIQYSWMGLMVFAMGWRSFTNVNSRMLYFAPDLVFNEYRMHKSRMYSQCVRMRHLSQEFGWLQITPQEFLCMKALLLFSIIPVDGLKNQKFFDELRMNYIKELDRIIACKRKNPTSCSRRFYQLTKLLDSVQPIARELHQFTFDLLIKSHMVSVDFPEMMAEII
Kind of series: LBD-expressing reporter assay (GeneBLAzer), AR LBD. In kind it is cell-based. The conditions noted are these: inhibition of maximal activity attained with agonist; read-out: Steroid Receptor LBD IC50 (μM) AR. An excerpt:
(§1) This assay uses cells that stably express a chimera fusion protein comprising the LBD of a steroid hormone receptor fused to the DNA-binding domain (DBD) of GAL4 along with beta-lactamase reporter under transcriptional control of an upstream activator sequence (UAS). When agonist binds to the LBD of the GAL4 (DBD)-steroid hormone (LBD) chimera fusion protein, the protein binds to the UAS, resulting in expression of beta-lactamase. LBDs of androgen receptor (AR), progesterone receptor-beta (PRβ), glucocorticoid receptor (GR), estrogen receptor-α (ERα), and estrogen receptor-β (ERβ) were tested and IC50s calculated for inhibiting maximal activity attained with agonist.

Series [2] addresses T2, LBD of glucocorticoid receptor (GR) fused to DBD of GAL4 (Homo sapiens, UniProt P04150).
T2 sequence (P04150 524-758 limits assumed): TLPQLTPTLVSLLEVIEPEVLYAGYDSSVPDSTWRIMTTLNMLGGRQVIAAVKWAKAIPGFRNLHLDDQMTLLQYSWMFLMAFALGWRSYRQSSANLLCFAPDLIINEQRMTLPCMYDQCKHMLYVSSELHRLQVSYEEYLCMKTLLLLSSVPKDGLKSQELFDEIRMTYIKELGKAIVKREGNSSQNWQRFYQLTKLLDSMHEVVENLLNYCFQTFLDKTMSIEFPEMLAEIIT
Put plainly: LBD-expressing reporter assay (GeneBLAzer), GR LBD. In kind it is cell-based. The conditions noted are these: inhibition of maximal activity attained with agonist; read-out: Steroid Receptor LBD IC50 (μM) GR.
Excerpt: as §1
In general terms: In a reporter assay the amount or activity of a reporter protein is the signal.

Series [3] is described as follows: Hepatocyte stability assay, human hepatocytes. It is filed as in vitro ADME. The conditions noted are these: cryopreserved hepatocytes, read-out: Hepatocytes T½ (min) Human. The source says:
The […] of in vitro intrinsic clearance (Clint) for drug candidates in the early discovery stage is common practice in the pharmaceutical industry. The Clint values of drug candidates can help to confirm whether metabolism is the main clearance pathway when it is compared with the total body clearance in vivo. Hepatocytes are among the routinely used in vitro systems for measuring clearance. Hepatocytes have been reported to retain most of the phase I and phase II metabolic activities, and therefore, it is a useful tool to estimate the intrinsic clearance for potential drug candidates.
Metabolic stability of testing compound were be evaluated using human and mouse hepatocytes and can also be use rat, mouse, or other animal hepatocytes to predict intrinsic clearance. Cryopreserved hepatocytes were removed from the liquid nitrogen tank and thawed in a 37° C. water bath. As soon as the cells pulled away from the vial wall, they were decanted into 48 ml of warm HT medium. Cells were centrifuged for four minutes at 420 rpm (50 g). After removing the supernatant, pellet was re-suspended in warm DMEM medium. Cell density was counted by a hemacytometer.
The assay was carried out in 96-well microtiter plates. Compounds were incubated for 0, 60, 120, and 180 minutes at 37° C. with hepatocytes. Reaction mixtures (50 μL) contained a final concentration of 1 μM test compound, 0.5 million cells/mL hepatocytes in the DMEM medium. At each of the time points (for example, 0, 1, 2, and 3 hours), 200 μL of quench solution (100% acetonitrile with 0.1% formic acid) with internal standard was transferred to each well. Midazolam was included as a positive control to verify assay performance. Plates were sealed and centrifuged at 4° C. for 15 minutes at 4000 rpm. The supernatant is transferred to fresh plates for LC/MS/MS analysis.
Summarized conditions (customizable): [Compound]=[…], Positive control: midazolam and/or naloxone, [Hepatocyte]=0.5 million cells/Ml, time=0, 60, 120, and 180 min, t=37° C.
All samples were analyzed on LC/MS/MS using an AB Sciex API 4000 instrument, coupled to a Shimadzu LC-20AD LC Pump system. Analytical samples were separated using a Waters Atlantis T3 dC18 reverse phase HPLC column (20 mm×2.1 mm) at a flow rate of 0.5 mL/min. The mobile phase consisted of 0.1% formic acid in water (solvent A) and 0.1% formic acid in 100% acetonitrile (solvent B).
The extent of metabolism was calculated as the disappearance of the test compound, compared to the 0-min control reaction incubations. Initial rates were calculated for the compound concentration and used to determine t½ values and subsequently, the intrinsic clearance, Clint. Clint=(0.693)(1/t½(min))(mL incubation/million cells)

Series [4] in a line: In vivo pharmacokinetics in plasma after oral gavage (PO) in male CD-1 mice. The conditions noted are these: for bioavailability / AUC(0-t) / Cmax / Tmax / half-life: mouse; for bioavailability / AUC(0-t) / Cmax / Tmax / half-life / AUC/D: plasma, single PO dose 5 mg/kg, male CD-1 mice; for bioavailability: oral availability; for half-life: read-out: t½ (converted).

For `CC(C)(c1ccc(OCc2ncc(S(C)(=O)=O)s2)cc1)c1cc(Cl)c(OCCCl)c(C#N)c1` [Compound A93, 3-chloro-2-(2-chloroethoxy)-5-(2-(4-((5-(methylsulfonyl)thiazol-2-yl)methoxy)phenyl)propan-2-yl)benzonitrile], the IC50 (usually the concentration that gives 50% inhibition) in series [1] was over 10 µM. Further, the IC50 in series [2] is over 10 µM. In series [3], the half-life at 1 μM is over 360 min. In series [4], the bioavailability (commonly dose-corrected exposure relative to a reference, in per cent) is 62.8%; the AUC(0-t) (commonly the area under the concentration-time curve up to a stated or last time point) came to 32900 ng·h/mL; the concentration peaked (Cmax) at 2970 ng/mL; the Tmax (in general, the time at which the peak concentration occurs) was found to be 0.8 h. In addition, in series [4], the half-life was 17.1 h and the “AUC/D” value was found to be 6575.7 kg·ng·h/mL/mg.

Take `CC(C)(c1ccc(OCc2ocnc2S(C)(=O)=O)cc1)c1cc(Cl)c(OCCCl)c(Cl)c1` [Compound A13, 5-((4-(2-(3,5-dichloro-4-(2-chloroethoxy)phenyl)propan-2-yl)phenoxy)methyl)-4-(methylsulfonyl)oxazole]: the IC50 in series [1] is over 10 µM. In addition, the IC50 in series [2] was over 10 µM. In series [3], the half-life at 1 μM stood at 290 min. Besides, the “Cmin at 5 mg/kg PO” value in series [4] (5 mg/kg PO, Table 4) was 230 nM. For the same compound, in series [4], the bioavailability stood at 85.8%, the AUC(0-t) is 8310 ng·h/mL, the Cmax (usually the maximum level reached in the sampled fluid or tissue) is 1140 ng/mL and the Tmax was 1 h. In addition, in series [4], the half-life is 8.3 h and the “AUC/D” value was found to be 1661.9 kg·ng·h/mL/mg.
